Data on eleven compounds can be found in ChEMBL document CHEMBL5625244, “Synthesis of cannabidiol-based compounds as ACE2 inhibitors with potential application in the treatment of COVID-19” (Eur J Med Chem, 2023).

As usually defined, the IC50 is the point on the concentration scale where inhibition reaches its midpoint.

Calls of active or inactive are those of the source. The rule behind the calls is not given here.

A short description of series [1]: Cytotoxicity against African green monkey Vero cells assessed as reduction in cell viability upto 100 uM incubated for 48 hrs by Alamar blue assay. It counts as toxicity, cell-based. The conditions noted are these: chlorocebus sabaeus.
Series [2] concerns SARS-CoV-2. Briefly: Antiviral activity against SARS-CoV-2 Wuhan infected in african green monkey Vero cells pre-infected for 1 hr followed by compound addition and measured after 48 hrs by RT-qPCR analysis. It is filed as functional, organism-based. Conditions: Severe acute respiratory syndrome coronavirus 2, Wuhan. For orientation: Real-time PCR tracks product formation cycle by cycle.

In series [3] the target is T1, Angiotensin-converting enzyme 2 (Homo sapiens, UniProt Q9BYF1). Briefly: Inhibition of human ACE2 using Mca-APK(Dnp) as substrate incubated for 30 mins by fluorometer analysis.
Target sequence in this assay (Q9BYF1 whole entry): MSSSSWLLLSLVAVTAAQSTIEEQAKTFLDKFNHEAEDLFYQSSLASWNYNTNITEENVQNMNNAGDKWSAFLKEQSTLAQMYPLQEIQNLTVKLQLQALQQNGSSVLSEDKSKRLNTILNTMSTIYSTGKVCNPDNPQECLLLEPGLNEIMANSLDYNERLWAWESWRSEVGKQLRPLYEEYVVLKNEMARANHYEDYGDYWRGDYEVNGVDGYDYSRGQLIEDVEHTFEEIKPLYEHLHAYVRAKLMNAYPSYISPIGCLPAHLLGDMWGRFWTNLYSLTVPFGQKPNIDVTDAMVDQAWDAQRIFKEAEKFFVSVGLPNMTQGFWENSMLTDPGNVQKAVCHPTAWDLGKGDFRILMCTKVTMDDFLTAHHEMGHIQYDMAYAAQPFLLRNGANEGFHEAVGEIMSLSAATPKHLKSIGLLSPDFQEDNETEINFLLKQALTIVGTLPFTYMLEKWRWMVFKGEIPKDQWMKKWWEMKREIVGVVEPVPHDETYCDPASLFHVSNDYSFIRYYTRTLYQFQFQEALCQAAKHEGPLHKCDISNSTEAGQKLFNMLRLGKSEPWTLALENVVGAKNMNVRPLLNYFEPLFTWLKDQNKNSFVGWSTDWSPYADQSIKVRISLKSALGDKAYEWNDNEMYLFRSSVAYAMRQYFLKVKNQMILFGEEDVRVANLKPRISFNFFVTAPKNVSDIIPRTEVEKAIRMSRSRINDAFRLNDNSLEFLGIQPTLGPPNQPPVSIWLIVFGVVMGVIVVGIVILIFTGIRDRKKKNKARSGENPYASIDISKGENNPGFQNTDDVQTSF
The target in series [4] is T1, Angiotensin-converting enzyme 2. Briefly: Inhibition of human ACE2 using Mca-APK(Dnp) as substrate at 10 nM incubated for 30 mins by fluorometer analysis.
Target sequence in this assay (Q9BYF1 18-805 limits assumed): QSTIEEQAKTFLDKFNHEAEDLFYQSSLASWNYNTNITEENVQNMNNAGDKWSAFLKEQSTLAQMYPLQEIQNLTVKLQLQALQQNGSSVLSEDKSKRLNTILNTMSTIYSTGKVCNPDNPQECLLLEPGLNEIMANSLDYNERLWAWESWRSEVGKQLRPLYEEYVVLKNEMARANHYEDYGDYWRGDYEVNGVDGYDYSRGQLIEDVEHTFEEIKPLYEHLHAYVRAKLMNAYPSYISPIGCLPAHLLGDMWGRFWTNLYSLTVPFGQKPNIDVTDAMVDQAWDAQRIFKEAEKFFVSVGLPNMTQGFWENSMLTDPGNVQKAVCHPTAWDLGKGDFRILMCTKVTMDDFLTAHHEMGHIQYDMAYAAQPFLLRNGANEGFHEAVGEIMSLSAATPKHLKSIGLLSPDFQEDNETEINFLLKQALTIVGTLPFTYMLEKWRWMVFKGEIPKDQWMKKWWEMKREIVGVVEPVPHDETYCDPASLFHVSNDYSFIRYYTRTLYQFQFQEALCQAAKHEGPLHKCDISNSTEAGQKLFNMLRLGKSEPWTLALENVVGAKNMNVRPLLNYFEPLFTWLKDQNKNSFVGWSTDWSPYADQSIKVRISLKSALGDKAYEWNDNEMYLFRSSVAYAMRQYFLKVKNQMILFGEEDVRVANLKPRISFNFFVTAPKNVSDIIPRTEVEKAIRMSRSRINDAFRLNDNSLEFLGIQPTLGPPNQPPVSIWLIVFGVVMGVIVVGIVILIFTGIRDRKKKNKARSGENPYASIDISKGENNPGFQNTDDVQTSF

Take `C=C(C)[C@@H]1CCC(C)=C[C@H]1c1c(OCC)cc(CCCCC)cc1OCC`: in series [1], the Activity entry was “Non-Toxic”. The values for the IC50 in series [2] and in series [3] were 9400 nM and 180 nM, respectively.

`CCCCCc1cc(OC(C)=O)c([C@@H]2C=C(C)CC[C@H]2[C@@H](C)CC=O)c(OC(C)=O)c1` registered an IC50 in series [3] of 40 nM.

In series [3], `CCCCCc1cc(O)cc2c1C1CC(C)(C)CC(C)(C1)O2` (stereo unspecified) registered an IC50 of 10 nM. Also, the inhibition entry in series [4] is “Active”.

On to `CCCCCc1cc(O)c([C@@H]2C=C(C)CC[C@H]2[C@@H](C)CCN2CCC(C)CC2)c(O)c1`, for which the Activity entry in series [1] is “Non-Toxic”. In addition, the concentration for half-maximal inhibition (IC50) in series [2] is 6500 nM; in series [3], > 30000 nM.

Take `C=C(C)[C@@H]1CCC(C)=C[C@H]1c1c(O)cc(CCCCC)cc1O` [CANNABIDIOL]: in series [1], the Activity entry is recorded as “Non-Toxic”. Moreover, the half-inhibitory concentration (IC50) in series [2] is 72800 nM; in series [3], > 30000 nM.

With `CCCCCc1cc(O)c([C@@H]2C=C(C)CC[C@H]2C(C)C)c(O)c1`, the Activity result in series [1] is reported as “Non-Toxic”. Further, the IC50 in series [2] stood at 1900 nM; in series [3] it was 1370 nM.

In turn, `CCCCCc1cc(O)c(C2C=C(C)CC(C)(C)C2)c(O)c1` (stereo unspecified) gave an IC50 in series [3] of 3960 nM.

The compound `CC(=O)NCC(=O)N[C@@H](CC(=O)O)C(=O)N[C@@H](Cc1ccc(O)cc1)C(=O)N[C@@H](CO)C(=O)N[C@@H](Cc1cnc[nH]1)C(=O)N[C@H]1CSSC[C@@H](C(=O)N[C@H](C(=O)N[C@@H](Cc2ccc(O)cc2)C(=O)N2CCC[C@H]2C(=O)N[C@@H](CC(=O)O)C(=O)N2CCC[C@H]2C(=O)N[C@@H](CCC(=O)O)C(=O)NCC(=O)NCC(=O)NCC(N)=O)[C@@H](C)O)NC(=O)[C@H](CCCCN)NC(=O)[C@H](Cc2c[nH]c3ccccc23)NC(=O)[C@H](Cc2c[nH]c3ccccc23)NC(=O)[C@@H]2CCCN2C(=O)[C@H](Cc2ccc(O)cc2)NC(=O)[C@H](Cc2ccc(O)cc2)NC(=O)[C@H](CCCNC(=N)N)NC(=O)[C@H](CC(C)C)NC(=O)[C@@H]2CCCN2C(=O)[C@H](CO)NC1=O` registered an IC50 in series [3] of 8300 nM.

`C=C(C)[C@@H]1CC=C(C)C(c2c(O)cc(CCCCC)cc2O)C1` (stereo partly specified): in series [1], the Activity result was “Non-Toxic”. Further, in series [2], the midpoint of inhibition, the IC50, lay at 6300 nM.

In series [3], `C=C(C)[C@@H]1CCC(C)=C[C@H]1c1c(OCCCC)cc(CCCCC)cc1OCCCC` gave an IC50 of 170 nM.

Compound `C=C(C)[C@@H]1CCC(C)=C[C@H]1c1c(OCC(=O)OCC)cc(CCCCC)cc1OCC(=O)OCC` had a half-maximal inhibitory concentration (IC50) in series [3] of 370 nM.
